Measurements: US9717718B2, “Anti-inflammatory compounds” (Phytoquest Limited, priority 2011, dated 2017)
Entries after “also recorded” stand apart in the source; their conditions may differ.

Assays:
[1] = tested on: α-D-galactosidase; experiment: Glycosidase assay, α-D-galactosidase; format: biochemical; conditions: 0.2 mM; negative value = stabilisation or promotion
Protocol: (§1) All enzymes and para-nitrophenyl substrates were purchased from Sigma, with the exception of beta-mannosidase which came from Megazyme. Enzymes were assayed at 27° C. in 0.1 M citric acid/0.2M disodium hydrogen phosphate buffers at the optimum pH for the enzyme. The incubation mixture consisted of 10 μl enzyme solution, 10 μl of 1 mg/ml aqueous solution of sample and 50 μl of the appropriate 5 mM para-nitrophenyl substrate made up in buffer at the optimum pH for the enzyme. […] Final absorbances were read at 405 nm using a Versamax microplate reader (Molecular Devices). Assays were carried out in triplicate, and the values given are means of the three replicates per assay.

[2] = tested on: β-D-mannosidase; experiment: Glycosidase assay, β-D-mannosidase; format: biochemical; conditions: 0.2 mM; negative value = stabilisation or promotion
Protocol: (§2) Enzymes were assayed at 27° C. in 0.1 M citric acid/0.2M disodium hydrogen phosphate buffers at the optimum pH for the enzyme. The incubation mixture consisted of 10 μl enzyme solution, 10 μl of 1 mg/ml aqueous solution of sample and 50 μl of the appropriate 5 mM para-nitrophenyl substrate made up in buffer at the optimum pH for the enzyme. […] Final absorbances were read at 405 nm using a Versamax microplate reader (Molecular Devices). Assays were carried out in triplicate, and the values given are means of the three replicates per assay.

[3] = tested on: β-D-galactosidase; experiment: Glycosidase assay, β-D-galactosidase; format: biochemical; conditions: 0.2 mM
Protocol: as §1

[4] = target: T1, α-D-glucosidase (Yeast) (Saccharomyces cerevisiae, UniProt P53341); experiment: Glycosidase assay, α-D-glucosidase (Yeast); format: biochemical; conditions: 0.2 mM, negative value = stabilisation or promotion of enzyme activity
T1 construct: purchased Sigma
T1 sequence (P53341 whole entry): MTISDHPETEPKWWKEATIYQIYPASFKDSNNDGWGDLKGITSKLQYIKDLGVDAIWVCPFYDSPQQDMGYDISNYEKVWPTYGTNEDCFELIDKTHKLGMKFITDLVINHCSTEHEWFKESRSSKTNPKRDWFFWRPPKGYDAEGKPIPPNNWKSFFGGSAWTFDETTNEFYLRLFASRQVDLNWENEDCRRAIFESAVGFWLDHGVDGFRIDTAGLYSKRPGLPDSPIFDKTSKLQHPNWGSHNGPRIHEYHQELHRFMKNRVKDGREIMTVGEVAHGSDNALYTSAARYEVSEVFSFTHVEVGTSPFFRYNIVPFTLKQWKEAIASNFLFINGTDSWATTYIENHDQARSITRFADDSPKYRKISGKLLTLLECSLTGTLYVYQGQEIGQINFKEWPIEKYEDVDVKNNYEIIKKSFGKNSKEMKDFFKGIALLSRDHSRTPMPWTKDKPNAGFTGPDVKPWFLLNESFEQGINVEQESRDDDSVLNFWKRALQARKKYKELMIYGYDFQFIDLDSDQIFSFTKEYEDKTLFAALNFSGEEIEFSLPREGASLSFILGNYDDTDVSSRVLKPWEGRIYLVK
Protocol: as §1

[5] = tested on: glucosidases; experiment: Glycosidase panel, summary in words for glucosidases; format: biochemical; conditions: 0.2 mM
Protocol: as §1

[6] = tested on: β-glucuronidase; conditions: 0.2 mM
Protocol: as §1

[7] = tested on: equine endometrial explant, Prostaglandin F2α (PGF2α) secretion; experiment: In vitro equine endometrial explant culture, LPS-stimulated PGF2α secretion; format: cell-based, horse
Protocol: The efficacy of ido-BR1 as an anti-inflammatory agent in a model of mucosal inflammation was tested. The model utilised was previously optimised and established (D M Nash, E A. Lane, S Herath and I M Sheldon (2008) Endometrial Explant Culture for Characterizing Equine Endometritis. American Journal of Reproductive Immunology. 59: 105-117). The model is comprised of an in vitro equine endometrial explant tissue culture system. […]
Uterine tissue was collected from mares at an abattoir, the endometrial (mucosal) surface was dissected out, […] placed in culture as explants. […] The secretion of PGF2α is measured at 24 and 72 h after challenge with LPS in order to represent the innate and chronic immune response respectively.
Explants were treated with control (media alone) or, in order to determine whether ido-BR1 affected spontaneous PGF2α, 0.5, 25 or 100 μg/ml ido-BR1 alone. […] The secretion of PGF2α was measured at 24 and 72 h after treatments were applied. […]

[8] = tested on: N-acetyl-β-D-gluc (Bovine kidney); experiment: Glycosidase assay, N-acetyl-β-D-gluc (Bovine kidney); format: biochemical; conditions: 0.2 mM; negative value = stabilisation or promotion
Protocol: as §1

[9] = tested on: β-D-glucosidase; experiment: Glycosidase assay, β-D-glucosidase; format: biochemical; conditions: 0.2 mM
Protocol: as §1

[10] = tested on: α-D-glucosidase (Bacillus); experiment: Glycosidase assay, α-D-glucosidase (Bacillus); format: biochemical; conditions: 0.2 mM
Protocol: as §1

[11] = tested on: α-D-mannosidase; experiment: Glycosidase assay, α-D-mannosidase; format: biochemical; conditions: 0.2 mM; for percentage inhibition, α-D-mannosidase: negative value = stabilisation or promotion
Protocol: as §1

[12] = tested on: N-acetyl-β-D-gluc (Jack bean); experiment: Glycosidase assay, N-acetyl-β-D-gluc (Jack bean); format: biochemical; conditions: 0.2 mM; negative value = stabilisation or promotion
Protocol: as §1

[13] = target: T2, α-D-glucosidase (Rice) (Oryza sativa subsp. japonica, UniProt Q653V7); experiment: Glycosidase assay, α-D-glucosidase (Rice); format: biochemical; conditions: 0.2 mM
T2 construct: purchased Sigma
T2 sequence (Q653V7 34-885): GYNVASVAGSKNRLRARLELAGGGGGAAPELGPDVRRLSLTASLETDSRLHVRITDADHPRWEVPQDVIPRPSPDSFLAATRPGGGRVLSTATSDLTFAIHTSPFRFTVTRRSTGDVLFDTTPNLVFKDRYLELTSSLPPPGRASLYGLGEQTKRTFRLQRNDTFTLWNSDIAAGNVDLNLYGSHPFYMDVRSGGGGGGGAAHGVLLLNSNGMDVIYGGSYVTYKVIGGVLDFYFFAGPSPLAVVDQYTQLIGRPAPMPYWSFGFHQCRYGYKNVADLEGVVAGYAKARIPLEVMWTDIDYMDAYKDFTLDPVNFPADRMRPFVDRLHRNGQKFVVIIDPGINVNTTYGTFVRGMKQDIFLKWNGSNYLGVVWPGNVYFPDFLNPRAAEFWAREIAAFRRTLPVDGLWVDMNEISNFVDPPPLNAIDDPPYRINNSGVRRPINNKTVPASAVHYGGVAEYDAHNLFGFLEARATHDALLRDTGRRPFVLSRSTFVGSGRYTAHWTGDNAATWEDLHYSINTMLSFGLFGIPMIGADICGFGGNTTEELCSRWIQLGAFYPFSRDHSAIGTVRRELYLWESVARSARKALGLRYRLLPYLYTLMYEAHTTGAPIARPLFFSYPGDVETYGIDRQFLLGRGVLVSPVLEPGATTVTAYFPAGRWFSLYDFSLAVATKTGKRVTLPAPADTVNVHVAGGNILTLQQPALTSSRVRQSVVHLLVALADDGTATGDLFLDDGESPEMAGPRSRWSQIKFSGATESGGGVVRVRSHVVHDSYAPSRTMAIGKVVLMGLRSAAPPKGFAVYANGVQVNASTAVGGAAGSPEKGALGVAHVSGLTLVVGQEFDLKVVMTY
Protocol: as §2

[14] = target: T3, Amyloglucosidase (Aspergillus niger, UniProt P69328); experiment: Glycosidase assay, Amyloglucosidase; format: biochemical; conditions: 0.2 mM
T3 construct: purchased Sigma
T3 sequence (P69328 25-640): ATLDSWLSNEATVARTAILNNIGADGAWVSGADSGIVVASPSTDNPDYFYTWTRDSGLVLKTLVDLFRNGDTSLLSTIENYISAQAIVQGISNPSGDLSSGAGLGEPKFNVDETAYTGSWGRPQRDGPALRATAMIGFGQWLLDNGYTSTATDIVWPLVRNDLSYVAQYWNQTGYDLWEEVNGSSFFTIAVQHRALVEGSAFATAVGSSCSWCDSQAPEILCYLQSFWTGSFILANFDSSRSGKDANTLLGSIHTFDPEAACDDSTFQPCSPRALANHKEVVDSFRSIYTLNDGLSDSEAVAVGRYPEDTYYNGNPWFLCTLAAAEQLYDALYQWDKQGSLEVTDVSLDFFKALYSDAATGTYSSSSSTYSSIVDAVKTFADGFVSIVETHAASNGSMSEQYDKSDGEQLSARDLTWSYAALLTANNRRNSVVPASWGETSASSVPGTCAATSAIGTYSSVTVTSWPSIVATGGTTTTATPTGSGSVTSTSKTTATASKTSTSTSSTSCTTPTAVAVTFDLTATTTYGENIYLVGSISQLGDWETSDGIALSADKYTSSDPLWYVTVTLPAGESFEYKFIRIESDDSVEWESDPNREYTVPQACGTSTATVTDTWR
Protocol: as §2

[15] = tested on: α-L-fucosidase; experiment: Glycosidase assay, α-L-fucosidase; format: biochemical; conditions: 0.2 mM
Protocol: as §1

[16] = tested on: Naringinase; experiment: Glycosidase assay, Naringinase; format: biochemical; conditions: 0.2 mM
Protocol: as §2

[17] = tested on: N-acetyl-β-D-hexosaminidase; experiment: Glycosidase assay, N-acetyl-β-D-hexosaminidase; format: biochemical; conditions: 0.2 mM; negative value = stabilisation or promotion
Protocol: as §2

Structure (SMILES)	percentage inhibition, α-D-galactosidase [1] [%]	percentage inhibition, β-D-mannosidase [2] [%]	percentage inhibition, β-D-galactosidase [3] [%]	inhibition of glucosidases (in words) [5]	percentage inhibition, N-acetyl-β-D-gluc (Bovine kidney) [8] [%]	percentage inhibition, β-D-glucosidase [9] [%]	percentage inhibition, α-D-glucosidase (Bacillus) [10] [%]	percentage inhibition, α-D-mannosidase [11] [%]	percentage inhibition, N-acetyl-β-D-gluc (Jack bean) [12] [%]	further results
O=C(O)[C@@H]1NC[C@H](O)[C@@H](O)[C@@H]1O [ido-BR1, (2R,3R,4R,5S)-3,4,5-trihydroxypiperidine-2-carboxylic acid]	−2.7	−4.4	1.0	very weakly inhibitory	5.5	6.1	26.4	−28.4	−4.5	inhibition at 200 µM ([4]; read-out: percentage inhibition, α-D-glucosidase (Yeast)): 4.7%; inhibition of glucuronidase (in words) [6]: not inhibitory; percentage inhibition, β-glucuronidase [6]: 2.5%; PGF2α secretion by LPS-challenged explants versus control (abrogation of inflammation) ([7]; 3.0 μg/ml LPS with 0.5, 25 or 100 μg/ml ido-BR1, 24 h): not significantly different to the control; also recorded: abrogated inflammation in the explants; abrogation of LPS-stimulated PGF2α secretion ([7]; 3.0 μg/ml LPS with ido-BR1, 72 h): not significant; effect on alpha-mannosidase activity (in words) [11]: promote alpha-mannosidase activity slightly
OC[C@H]1NC[C@H](O)[C@@H](O)[C@@H]1O [DNJ, reference compound]	−3.3	−19.0	0.4	potent inhibition	−0.8	63.7	99.5	26.6	2.8	percentage inhibition, α-D-glucosidase (Rice) [13]: 99.6%; percentage inhibition, Amyloglucosidase [14]: 31.7%; percentage inhibition, α-D-glucosidase (Yeast) [4]: 35.7%; percentage inhibition, α-L-fucosidase [15]: 5.9%; percentage inhibition, Naringinase [16]: 20.8%; percentage inhibition, N-acetyl-β-D-hexosaminidase [17]: −5.5%
